{"source": "PubChem BioAssay (NCI)", "experiment_in_all_cases": "inhibition of tumour cell growth, NCI panel, 384-well format", "key": {"[1]": {"tested_on": "NCI-H226 lung"}, "[2]": {"tested_on": "M14 melanoma"}, "[3]": {"tested_on": "MDA-MB-435 melanoma"}, "[4]": {"tested_on": "RPMI-8226 leukemia"}, "[5]": {"tested_on": "MALME-3M melanoma"}, "[6]": {"tested_on": "PC-3 prostate"}, "[7]": {"tested_on": "SR leukemia"}, "[8]": {"tested_on": "COLO 205 colon"}, "[9]": {"tested_on": "KM12 colon"}, "[10]": {"tested_on": "CAKI-1 renal"}, "[11]": {"tested_on": "HT29 colon"}, "[12]": {"tested_on": "786-0 renal"}, "[13]": {"tested_on": "HL-60(TB) leukemia"}, "[14]": {"tested_on": "UO-31 renal"}, "[15]": {"tested_on": "HCT-15 colon"}, "[16]": {"tested_on": "OVCAR-3 ovarian"}, "[17]": {"tested_on": "MOLT-4 leukemia"}, "[18]": {"tested_on": "CCRF-CEM leukemia"}, "[19]": {"tested_on": "DU-145 prostate"}, "[20]": {"tested_on": "SW-620 colon"}, "[21]": {"tested_on": "U251 glioblastoma"}, "[22]": {"tested_on": "SN12C renal"}, "[23]": {"tested_on": "RXF 393 renal"}, "[24]": {"tested_on": "A498 renal"}, "[25]": {"tested_on": "OVCAR-5 ovarian"}, "[26]": {"tested_on": "MCF7 breast"}, "[27]": {"tested_on": "SF-539 CNS"}, "[28]": {"tested_on": "NCI-H322M lung"}, "[29]": {"tested_on": "UACC-62 melanoma"}, "[30]": {"tested_on": "K-562 leukemia"}, "[31]": {"tested_on": "SK-MEL-2 melanoma"}, "[32]": {"tested_on": "OVCAR-4 ovarian"}, "[33]": {"tested_on": "LOX IMVI melanoma"}, "[34]": {"tested_on": "HOP-92 NSCLC"}, "[35]": {"tested_on": "SNB-19 CNS"}, "[36]": {"tested_on": "SF-295 CNS"}, "[37]": {"tested_on": "A549 NSCLC"}, "[38]": {"tested_on": "HCC-2998 colon"}, "[39]": {"tested_on": "BT-549 breast"}, "[40]": {"tested_on": "NCI/ADR-RES ovarian"}, "[41]": {"tested_on": "SK-OV-3 ovarian"}, "[42]": {"tested_on": "NCI-H460 NSCLC"}, "[43]": {"tested_on": "ACHN renal"}, "[44]": {"tested_on": "IGROV1 ovarian"}, "[45]": {"tested_on": "SK-MEL-5 melanoma"}, "[46]": {"tested_on": "OVCAR-8 ovarian"}, "[47]": {"tested_on": "SF-268 CNS"}}, "note": "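Abbreviation: GI50, concentration required for 50% inhibition of growth. TGI marks complete inhibition of growth.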"}
{"smiles": "C[C@@H](c1ccc2nccn2c1)n1nnc2ncc(-c3cnn(C)c3)nc21", "values": [{"measurement": "GI50", "setting": "[1]", "value": "> 100", "unit": "µM"}, {"measurement": "TGI", "setting": "[1]", "value": "> 100", "unit": "µM"}, {"measurement": "GI50", "setting": "[2]", "value": "> 100", "unit": "µM"}, {"measurement": "TGI", "setting": "[2]", "value": "> 100", "unit": "µM"}, {"measurement": "GI50", "setting": "[3]", "value": "> 100", "unit": "µM"}, {"measurement": "TGI", "setting": "[3]", "value": "> 100", "unit": "µM"}, {"measurement": "GI50", "setting": "[4]", "value": "> 68.8", "unit": "µM"}, {"measurement": "TGI", "setting": "[4]", "value": "> 100", "unit": "µM"}, {"measurement": "GI50", "setting": "[5]", "value": "> 100", "unit": "µM"}, {"measurement": "TGI", "setting": "[5]", "value": "> 100", "unit": "µM"}, {"measurement": "GI50", "setting": "[6]", "value": "> 100", "unit": "µM"}, {"measurement": "TGI", "setting": "[6]", "value": "> 100", "unit": "µM"}, {"measurement": "GI50", "setting": "[7]", "value": 43.3, "unit": "µM"}, {"measurement": "TGI", "setting": "[7]", "value": "> 100", "unit": "µM"}, {"measurement": "GI50", "setting": "[8]", "value": "> 100", "unit": "µM"}, {"measurement": "TGI", "setting": "[8]", "value": "> 100", "unit": "µM"}, {"measurement": "GI50", "setting": "[9]", "value": 35, "unit": "µM"}, {"measurement": "TGI", "setting": "[9]", "value": "> 100", "unit": "µM"}, {"measurement": "GI50", "setting": "[10]", "value": "> 51.5", "unit": "µM"}, {"measurement": "TGI", "setting": "[10]", "value": "> 100", "unit": "µM"}, {"measurement": "GI50", "setting": "[11]", "value": "> 100", "unit": "µM"}, {"measurement": "TGI", "setting": "[11]", "value": "> 100", "unit": "µM"}, {"measurement": "GI50", "setting": "[12]", "value": "> 100", "unit": "µM"}, {"measurement": "TGI", "setting": "[12]", "value": "> 100", "unit": "µM"}, {"measurement": "GI50", "setting": "[13]", "value": "> 92.2", "unit": "µM"}, {"measurement": "TGI", "setting": "[13]", "value": "> 100", "unit": "µM"}, {"measurement": "GI50", "setting": "[14]", "value": "> 100", "unit": "µM"}, {"measurement": "TGI", "setting": "[14]", "value": "> 100", "unit": "µM"}, {"measurement": "GI50", "setting": "[15]", "value": "> 100", "unit": "µM"}, {"measurement": "TGI", "setting": "[15]", "value": "> 100", "unit": "µM"}, {"measurement": "GI50", "setting": "[16]", "value": "> 100", "unit": "µM"}, {"measurement": "TGI", "setting": "[16]", "value": "> 100", "unit": "µM"}, {"measurement": "GI50", "setting": "[17]", "value": 51.5, "unit": "µM"}, {"measurement": "TGI", "setting": "[17]", "value": "> 100", "unit": "µM"}, {"measurement": "GI50", "setting": "[18]", "value": "> 71.6", "unit": "µM"}, {"measurement": "TGI", "setting": "[18]", "value": "> 100", "unit": "µM"}, {"measurement": "GI50", "setting": "[19]", "value": "> 100", "unit": "µM"}, {"measurement": "TGI", "setting": "[19]", "value": "> 100", "unit": "µM"}, {"measurement": "GI50", "setting": "[20]", "value": "> 100", "unit": "µM"}, {"measurement": "TGI", "setting": "[20]", "value": "> 100", "unit": "µM"}, {"measurement": "GI50", "setting": "[21]", "value": "> 100", "unit": "µM"}, {"measurement": "TGI", "setting": "[21]", "value": "> 100", "unit": "µM"}, {"measurement": "GI50", "setting": "[22]", "value": "> 63", "unit": "µM"}, {"measurement": "TGI", "setting": "[22]", "value": "> 100", "unit": "µM"}, {"measurement": "GI50", "setting": "[23]", "value": "> 75.4", "unit": "µM"}, {"measurement": "TGI", "setting": "[23]", "value": "> 100", "unit": "µM"}, {"measurement": "GI50", "setting": "[24]", "value": "> 100", "unit": "µM"}, {"measurement": "TGI", "setting": "[24]", "value": "> 100", "unit": "µM"}, {"measurement": "GI50", "setting": "[25]", "value": "> 100", "unit": "µM"}, {"measurement": "TGI", "setting": "[25]", "value": "> 100", "unit": "µM"}, {"measurement": "GI50", "setting": "[26]", "value": "> 100", "unit": "µM"}, {"measurement": "TGI", "setting": "[26]", "value": "> 100", "unit": "µM"}, {"measurement": "GI50", "setting": "[27]", "value": "> 100", "unit": "µM"}, {"measurement": "TGI", "setting": "[27]", "value": "> 100", "unit": "µM"}, {"measurement": "GI50", "setting": "[28]", "value": "> 100", "unit": "µM"}, {"measurement": "TGI", "setting": "[28]", "value": "> 100", "unit": "µM"}, {"measurement": "GI50", "setting": "[29]", "value": "> 100", "unit": "µM"}, {"measurement": "TGI", "setting": "[29]", "value": "> 100", "unit": "µM"}, {"measurement": "GI50", "setting": "[30]", "value": 44.8, "unit": "µM"}, {"measurement": "TGI", "setting": "[30]", "value": "> 100", "unit": "µM"}, {"measurement": "GI50", "setting": "[31]", "value": "> 100", "unit": "µM"}, {"measurement": "TGI", "setting": "[31]", "value": "> 100", "unit": "µM"}, {"measurement": "GI50", "setting": "[32]", "value": "> 94.4", "unit": "µM"}, {"measurement": "TGI", "setting": "[32]", "value": "> 100", "unit": "µM"}, {"measurement": "GI50", "setting": "[33]", "value": "> 65.9", "unit": "µM"}, {"measurement": "TGI", "setting": "[33]", "value": "> 100", "unit": "µM"}, {"measurement": "GI50", "setting": "[34]", "value": "> 100", "unit": "µM"}, {"measurement": "TGI", "setting": "[34]", "value": "> 100", "unit": "µM"}, {"measurement": "GI50", "setting": "[35]", "value": "> 100", "unit": "µM"}, {"measurement": "TGI", "setting": "[35]", "value": "> 100", "unit": "µM"}, {"measurement": "GI50", "setting": "[36]", "value": 25.2, "unit": "µM"}, {"measurement": "TGI", "setting": "[36]", "value": "> 100", "unit": "µM"}, {"measurement": "GI50", "setting": "[37]", "value": "> 100", "unit": "µM"}, {"measurement": "TGI", "setting": "[37]", "value": "> 100", "unit": "µM"}, {"measurement": "GI50", "setting": "[38]", "value": "> 100", "unit": "µM"}, {"measurement": "TGI", "setting": "[38]", "value": "> 100", "unit": "µM"}, {"measurement": "GI50", "setting": "[39]", "value": "> 100", "unit": "µM"}, {"measurement": "TGI", "setting": "[39]", "value": "> 100", "unit": "µM"}, {"measurement": "GI50", "setting": "[40]", "value": "> 100", "unit": "µM"}, {"measurement": "TGI", "setting": "[40]", "value": "> 100", "unit": "µM"}, {"measurement": "GI50", "setting": "[41]", "value": "> 100", "unit": "µM"}, {"measurement": "TGI", "setting": "[41]", "value": "> 100", "unit": "µM"}, {"measurement": "GI50", "setting": "[42]", "value": "> 100", "unit": "µM"}, {"measurement": "TGI", "setting": "[42]", "value": "> 100", "unit": "µM"}, {"measurement": "GI50", "setting": "[43]", "value": "> 100", "unit": "µM"}, {"measurement": "TGI", "setting": "[43]", "value": "> 100", "unit": "µM"}, {"measurement": "GI50", "setting": "[44]", "value": "> 100", "unit": "µM"}, {"measurement": "TGI", "setting": "[44]", "value": "> 100", "unit": "µM"}, {"measurement": "GI50", "setting": "[45]", "value": "> 92.7", "unit": "µM"}, {"measurement": "TGI", "setting": "[45]", "value": "> 100", "unit": "µM"}, {"measurement": "GI50", "setting": "[46]", "value": "> 100", "unit": "µM"}, {"measurement": "TGI", "setting": "[46]", "value": "> 100", "unit": "µM"}, {"measurement": "GI50", "setting": "[47]", "value": "> 100", "unit": "µM"}, {"measurement": "TGI", "setting": "[47]", "value": "> 100", "unit": "µM"}]}
